The values that follow come from ChEMBL document CHEMBL1154593, “Insights into the inhibition of xanthine oxidase by curcumin” (Bioorg Med Chem Lett, 2009).

The assay addresses Xanthine dehydrogenase/oxidase (Homo sapiens, UniProt P47989). Description: Inhibition of xanthine oxidase.

Xanthine dehydrogenase/oxidase, sequence (P47989 whole entry): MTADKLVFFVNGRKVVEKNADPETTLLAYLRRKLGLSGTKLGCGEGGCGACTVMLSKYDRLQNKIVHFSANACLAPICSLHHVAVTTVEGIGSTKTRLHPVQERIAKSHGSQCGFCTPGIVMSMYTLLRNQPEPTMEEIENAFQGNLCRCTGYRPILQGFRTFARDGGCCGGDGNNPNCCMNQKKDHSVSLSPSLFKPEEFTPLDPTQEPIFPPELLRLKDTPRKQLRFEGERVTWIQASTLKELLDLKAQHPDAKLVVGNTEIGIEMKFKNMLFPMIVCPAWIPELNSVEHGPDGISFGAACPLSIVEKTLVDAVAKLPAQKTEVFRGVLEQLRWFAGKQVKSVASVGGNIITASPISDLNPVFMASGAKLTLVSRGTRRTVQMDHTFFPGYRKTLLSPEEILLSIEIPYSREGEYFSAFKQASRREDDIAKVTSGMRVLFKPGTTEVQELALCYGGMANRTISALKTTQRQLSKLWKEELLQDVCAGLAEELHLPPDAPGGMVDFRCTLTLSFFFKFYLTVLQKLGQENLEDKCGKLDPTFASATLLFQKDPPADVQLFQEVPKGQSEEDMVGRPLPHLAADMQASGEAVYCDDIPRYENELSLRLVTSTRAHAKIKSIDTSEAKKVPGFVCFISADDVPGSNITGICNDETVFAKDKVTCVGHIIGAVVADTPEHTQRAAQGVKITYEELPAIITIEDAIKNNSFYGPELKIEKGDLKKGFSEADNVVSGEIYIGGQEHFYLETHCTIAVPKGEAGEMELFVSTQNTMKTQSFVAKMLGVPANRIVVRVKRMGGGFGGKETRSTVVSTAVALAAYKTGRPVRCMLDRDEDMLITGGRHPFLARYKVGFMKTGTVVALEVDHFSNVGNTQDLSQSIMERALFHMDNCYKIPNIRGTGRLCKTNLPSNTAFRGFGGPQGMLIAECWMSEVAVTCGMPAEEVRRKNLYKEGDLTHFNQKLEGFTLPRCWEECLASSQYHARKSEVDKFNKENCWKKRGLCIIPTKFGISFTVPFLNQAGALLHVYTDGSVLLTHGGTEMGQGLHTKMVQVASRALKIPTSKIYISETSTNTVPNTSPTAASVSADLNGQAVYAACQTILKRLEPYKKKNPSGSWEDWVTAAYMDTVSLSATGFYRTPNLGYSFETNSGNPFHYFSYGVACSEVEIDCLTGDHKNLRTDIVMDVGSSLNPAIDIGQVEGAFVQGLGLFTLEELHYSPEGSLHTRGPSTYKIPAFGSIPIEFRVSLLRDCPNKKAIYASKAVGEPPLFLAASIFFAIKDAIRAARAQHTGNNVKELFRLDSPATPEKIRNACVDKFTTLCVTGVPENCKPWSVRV

Compound `COc1cc(/C=C/C=O)ccc1O` [CONIFERYL ALDEHYDE] had a Ki of 93.9 µM.
